# Test results taken from patent US6864364B1, “MinK-related genes, formation of potassium channels and association with cardiac arrhythmia” (priority 1999, dated 2005).
# Columns and labels:
# HERG channels [1] = molecular target: T1, HERG channels (Homo sapiens, UniProt Q12809); experiment: Ca2+ treated as blocking ion, HERG channels in oocytes, protocols 1 and 2; assay type: cell-based; set-up: expressed in transfected cells; host or cells: CHO cells; settings: −100 mV, read-out: apparent equilibrium inhibition constant (Ki)
# Procedure: (§1) Raw data are shown without leak correction. […] All experiments were performed at 22° C.
# [2] = molecular target: T2, heteromeric channels containing rMiRP1 (Homo sapiens, UniProt Q12809); experiment: Ca2+ treated as blocking ion, rMiRP1/HERG channels in oocytes, protocols 1 and 2; assay type: cell-based, rat; settings: rMiRP1/HERG vs HERG
# T2 construct: expressed in transfected cells; host or cells: Xenopus laevis oocytes, cRNA injection
# Procedure: as §1
# Native IKr channels = settings: ferret cardiac myocytes; Liu et al., 1996; read-out: Ki, E-4031, native IKr channels; cited from earlier work
# [3] = molecular target: wild type hMiRP1/HERG channels (Homo sapiens, UniProt Q12809); experiment: Drug blockade of wild type hMiRP1/HERG channels expressed in CHO cells
# Procedure: (§2) Ionic conditions. Activation of channels formed only with HERG or containing both rMiRP1 and HERG subunits was assessed at various Ca^2+ concentrations by protocols 1 and 2. […] Initial characterizations were thus performed in a “low Ca^2+/high K^+” bath solution (in mM): 95 KCl, 5 NaCl, 1 MgCl2, 0.3 CaCl2 and 10 HEPES, pH 7.6 with NaOH. Other studies use solutions based on levels of ionized species found in human plasma (in mM): 4 KCl, 95 NaCl, 0.75 MgCl2, 1 CaCl2 and 10 HEPES, pH 7.6 with NaOH. For K^+ titrations in FIG. 4, NaCl and KCl were isotonically substituted. For cell-attached patches, pipette solution was (in mM): 100 KCl, 1 MgCl2, 0.3 CaCl2, 10 HEPES, pH 7.5 with KOH. For whole cell, pipettes contained (in mM): 100 KCl, 1 MgCl2, 10 HEPES, 2 EGTA, pH 7.5 with KOH.
# Q9E-hMiRP1 channels = Q9E-hMiRP1 channels (Homo sapiens, UniProt Q12809); experiment: Clarithromycin blockade of Q9E-hMiRP1/HERG channels in CHO cells; settings: for Ki: clarithromycin blockade
# Procedure: Wild type hMiRP1/HERG channels and those formed with Q9E, M54T, I57T or T8A-hMiRP1 were compared by transient expression in CHO cells using 1 mM Ca^2+, 4 mM KCl solution.
# HERG channels [4] = molecular target: T1, HERG channels; experiment: cell-based
# Procedure: as §2
structure (smiles),measurement,setting,value
[Ca+2] [Ca^2+],Ki,HERG channels [1],290 ± 20 µM
same,"apparent Ki relative to HERG channels, fold lower",[2],~3 fold
Cc1cccc(CCN2CCC(C(=O)c3ccc(NS(C)(=O)=O)cc3)CC2)n1 [E-4031],Ki,Native IKr channels,0.0103 µM
CC[C@H]1OC(=O)[C@H](C)[C@@H](O[C@H]2C[C@@](C)(OC)[C@@H](O)[C@H](C)O2)[C@H](C)[C@@H](O[C@@H]2O[C@H](C)C[C@H](N(C)C)[C@H]2O)[C@](C)(OC)C[C@@H](C)C(=O)[C@H](C)[C@@H](O)[C@]1(C)O [clarithromycin],IC50,[3],720 ± 180 µM
same,Ki,[3],590 ± 100 µM
same,shift of V1/2 to more positive potentials,"[3]; human, pH 7.6",10 mV
same,sensitivity to the drug relative to wild type channels,Q9E-hMiRP1 channels,3 fold
same,shift of V1/2 to more positive potentials,Q9E-hMiRP1 channels,10 mV
same,Ki,"Q9E-hMiRP1 channels; CHO cells, 1 mM Ca2+, 4 mM KCl",240 ± 40 µM
same,Ki,"Q9E-hMiRP1 channels; bath K+ reduced to 1 mM, n=6 cells",200 ± 70 µM
same,IC50,HERG channels [4],750 ± 310 µM
